# Reference: patent publication EP1105728B1, “MODULATING MULTIPLE LINEAGE KINASE PROTEINS” (CEPHALON, INC., priority 1998, dated 2000)
# Read-outs that look alike come from different tables or passages of the source.
# What was measured:
# [1] = biological target: T1, MEKK1 (Homo sapiens, UniProt Q13233); assay: JNK activity in Cos7 cells overexpressing HA-JNK1 with MEKK1; type: cell-based; conditions: 500 nM; Cos7 cells overexpressing HA-JNK1 with MEKK1 (Figure 15C)
# T1 construct: expressed in transfected cells; host or cells: Cos7
# [2] = test system: motoneurons; assay: Survival of rat spinal cord cultures enriched for motoneurons (calcein AM); type: cell-based; conditions: data not shown
# Protocol: Spinal cords were dissected from Sprague-Dawley rat fetuses (Charles River Laboratories, Wilmington. MA) of embryonic age (E) 14.5-15. […] Cells were seeded onto 96-well plates previously coated with poly-1-omithine and laminin (5 ug/ml each) at a density of 6 x 10^4 cells/cm^2 in chemically defined serum-free N2 medium (Bottenstein, et al., 1979, supra). In order to separate attachment from survival effects, addition of compounds to cultures was made after an initial attachment period of 1-3 h. Neuronal survival was assessed after 4 d by using calcein AM (Molecular Probes, Eugene, OR) in a fluorometric viability assay (Bozyczko-Coyne, et al., 1993, supra). Microscopic counts of neurons correlated directly with relative fluorescence values. In brief, culture medium was serially diluted in DPBS (Dulbeccos phosphate buffered saline) and a final concentration of 6 uM calcein AM stock was then added to each 96-well. The plates were incubated for 30 min at 37°C, followed by serial dilution washes in DPBS. The fluorescent signal was read using a plate-reading fluorimeter from Millipore (Cytofluor 2350) at excitation=485 nm and emission = 538 nm. […] Linearity of the fluorescence signal was verified for the concentration and incubation time for the range of cell densities in these experiments. […]
# [3] = test system: sympathetic ganglion neurons (SG); assay: Survival of chick embryonic sympathetic ganglion neurons; type: cell-based
# Protocol: (§1) Paravertebral sympathetic ganglia (SG; embryonal day 12 (E12)), dorsal root ganglia (DRG;E9), and ciliary ganglia (CG;E8) were dissected from chick embryos at the indicated embryonic day as described in Lindsay, et al., Dev. Biol., 1985, 112, 319-328, which is incorporated herein by reference in its entirety. After trypsinization and dissociation, the nerve cell suspensions were plated onto polyomithine-laminin-coated culture dishes in Ham's F14 culture medium, supplemented with 10% horse serum. Immediately after plating, survival factors were added at the following concentrations: Nerve growth factor (NGF), 20 ng/ml; ciliary neutrophic factor (CNTF), 10 ng/ml. The cultures were maintained at 37° and 5% CO2 in a humidified environment.
# (§2) Neurons were plated in 35 mm culture dishes with grids (Nunc). Selected areas of each dish comprising together about 10% of the surface scanned for the presence of phase bright cells immediately after plating and again after 48 h to assess survival percentages. Cell survival was confirmed by vital staining with trypan blue (not shown).
# [4] = test system: ciliary ganglion (CG) neurons; assay: Survival of chick embryonic ciliary ganglion neurons; type: cell-based
# Protocol: as §1
# Neurons were plated in 35 mm culture dishes with grids (Nunc). […] Cell survival was confirmed by vital staining with trypan blue (not shown).
# [5] = test system: chick motoneurons; assay: Survival of chick embryonic motoneurons; type: cell-based
# Protocol: Motoneurons (embryonic day 5.5) were isolated with an immunological method according to the procedure set forth in Bloch-Gallego, et al., Development, 1991, 111, 221-232, which is incorporated herein by reference in its entirety, with modifications as described in Weng, et al., NeuroReport, 1996, 7, 1077-1081, which is incorporated herein by reference in its entirety. Purified motoneurons were seeded onto 35 mm tissue culture dishes (Nunc) pre-coated with poly-DL-omithine and laminin (1 µg/ml, Upstate Biotech). […] Muscle extract was supplemented at 30 µg/ml. Compound III-3 was prepared as a 4mM stock solution in DMSO and stored protected from light at 4°C. The final concentration of DMSO in treated and control cultures was 0.125%.
# as §2
# [6] = test system: lumbar motor neurons; assay: Developmentally regulated motor neuronal death in the chick embryo; type: in vivo
# Excerpt: The present example is described in detail in Glicksman, et al., J. Neurobiol., 1998, 35, 361-370, which is incorporated herein by reference in its entirety. On E6, a window in the shell of chick eggs (Spafas, Preston, CT) was made and either vehicle (5% Solutol ™ HS 15, polyethylene glycol 660 hydroxysterate; BASF Aktiengesellschaft, Ludwigshafen, Germany (in phosphate-buffered saline, pH 7.2)) or the specified dose of Compound III-3 in the vehicle was applied directly onto the vascularized chorioallantoic membrane-once daily from E6 to E9 as described in Oppenheim, et al., Science, 1991, 251, 1616-1617, which is incorporated herein by reference in its entirety). Embryos were sacrificed at E10 and their spinal cords were removed, fixed in Carnoy's solution (10% glacial acetic acid, 60% absolute ethanol, 30% chloroform), processed for serial paraffin sections, and stained with thionin. Every 20th section of lumbar segments 1-8 was counted according to previously described criteria (Clarke, et al., Methods In Cell Biology: Cell Death, 1995, Schwart & Osborne, Eds., Academic Press, New York, pp.277-321, which is incorporated herein by reference in its entirety).
# [7] = test system: IL-1; assay: Induction of IL-1 by LPS in THP-1 cells (ELISA); type: cell-based
# Protocol: THP-1 cells were grown in RPMI 1640 medium supplemented with 10% fetal bovine serum. LPS (E.coli serotype 0111.B4, TCA extracted) was purchased from Sigma and dissolved in PBS. ELISA kits for assaying IL-1 and TNF-α were purchased from Boerhinger-Mannheim and assays on THP-1 culture medium were performed as directed by the manufacturer. Standard curves according to directions were obtained with each assay.
# Experiments were performed in 12 well culture plates with either 1 or 2 ml of THP-1 cells at 4 X 10^5 cells/ml. IL-1 and TNF-α were induced by the addition of LPS to the culture medium and the medium collected at various times thereafter for cytokine assay. Cells were removed by centrifugation and the supernatants frozen at -70°C until assay. To minimize costs experiments were performed in duplicate cultures and the duplicate supernatants were pooled after centrifugation. Each pooled supernatant was assayed in duplicate. Stock solutions of indolo- and fused pyrrolocarbazoles in 100% DMSO were diluted to the desired concentrations in either medium containing 10% fetal bovine serum or in medium containing 0.5 mg/ml BSA. Unless otherwise stated, compounds were added to the THP-1 cells 1 hr prior to the addition of LPS.
# T1 sequence (Q13233 whole entry, species assumed): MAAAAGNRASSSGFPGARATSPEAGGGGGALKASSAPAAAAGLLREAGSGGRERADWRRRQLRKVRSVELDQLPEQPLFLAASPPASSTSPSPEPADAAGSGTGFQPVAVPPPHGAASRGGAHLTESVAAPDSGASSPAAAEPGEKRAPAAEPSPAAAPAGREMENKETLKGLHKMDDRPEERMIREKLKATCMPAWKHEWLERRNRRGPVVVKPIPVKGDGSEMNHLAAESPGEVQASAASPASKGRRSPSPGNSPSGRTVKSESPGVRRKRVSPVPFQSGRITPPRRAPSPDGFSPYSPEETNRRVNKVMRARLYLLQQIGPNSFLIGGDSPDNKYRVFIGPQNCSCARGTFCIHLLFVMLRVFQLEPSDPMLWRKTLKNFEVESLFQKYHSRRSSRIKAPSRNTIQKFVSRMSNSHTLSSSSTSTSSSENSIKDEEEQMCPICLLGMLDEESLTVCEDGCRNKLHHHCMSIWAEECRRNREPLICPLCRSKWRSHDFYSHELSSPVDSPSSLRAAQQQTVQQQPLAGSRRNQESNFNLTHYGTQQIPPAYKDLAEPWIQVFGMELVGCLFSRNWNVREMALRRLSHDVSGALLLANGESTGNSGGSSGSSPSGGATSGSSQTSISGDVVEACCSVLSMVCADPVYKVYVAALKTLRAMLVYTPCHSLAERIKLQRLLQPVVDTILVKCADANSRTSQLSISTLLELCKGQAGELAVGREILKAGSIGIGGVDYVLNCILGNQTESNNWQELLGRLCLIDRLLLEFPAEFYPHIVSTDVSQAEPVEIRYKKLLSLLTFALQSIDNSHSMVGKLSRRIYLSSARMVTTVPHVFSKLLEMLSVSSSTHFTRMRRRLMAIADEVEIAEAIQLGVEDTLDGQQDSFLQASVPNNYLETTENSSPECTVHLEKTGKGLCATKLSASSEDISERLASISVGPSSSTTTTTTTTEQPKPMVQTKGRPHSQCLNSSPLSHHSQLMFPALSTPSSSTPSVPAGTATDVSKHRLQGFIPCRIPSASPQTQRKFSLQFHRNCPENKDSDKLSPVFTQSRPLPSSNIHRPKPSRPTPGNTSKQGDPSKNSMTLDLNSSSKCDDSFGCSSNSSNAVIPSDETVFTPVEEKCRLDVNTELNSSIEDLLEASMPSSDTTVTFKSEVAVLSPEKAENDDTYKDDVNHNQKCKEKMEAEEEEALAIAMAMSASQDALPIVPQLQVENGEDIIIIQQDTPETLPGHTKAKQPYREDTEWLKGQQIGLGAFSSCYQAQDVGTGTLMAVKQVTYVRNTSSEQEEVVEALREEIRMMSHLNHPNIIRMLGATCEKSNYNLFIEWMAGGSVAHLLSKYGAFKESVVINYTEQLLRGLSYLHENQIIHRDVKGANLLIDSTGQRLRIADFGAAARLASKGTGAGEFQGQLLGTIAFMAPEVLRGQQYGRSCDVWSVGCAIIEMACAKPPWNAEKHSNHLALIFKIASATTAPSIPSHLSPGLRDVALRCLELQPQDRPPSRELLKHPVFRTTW
smiles,measurement,setting,value
CCSCc1ccc2c(c1)c1c3c(c4c5cc(CSCC)ccc5n5c4c1n2C1CC(O)(C(=O)OC)C5(C)O1)CNC3=O (stereo not shown) [III-3],JNK pathway activated by MEKK1,[1],did not interfere with the JNK pathway
same,potency in mediating survival in motor neuron-enriched cultures relative to K-252a,[2],approximately fivefold
same,concentration at which the survival effect reached a plateau,[3]; 10% serum (Fig. 16),around 1 µM
same,SG neurons alive,"[3]; after 48 h, Compound III-3 1 µM, NGF 20 ng/ml, 10% serum",94%
same,SG survival,[3]; after four days,83%
same,concentration at which the survival effect reached a plateau,[4]; 10% serum (Fig. 16),around 1 µM
same,survival of CNTF-dependent ciliary ganglion (CG) neurons,"[4]; after 24 h, CNTF 10 ng/ml, 10% serum",76%
same,CG survival,[4]; after four days,58%
same,motoneurons survived,"[5]; after 48 h, Compound III-3 300 nM, serum-free conditions, muscle extract 30 µg/ml",79%
same,motoneurons alive,[5]; after four days in culture,56%
same,concentration of maximal survival effect,"[5]; serum-free conditions, higher concentrations showed a progressively reduced effect",300 nM
same,motor neurons rescued,[6]; 1.2 and 1.8 µg/day onto the chorioallantoic membrane,25%
same,motor neurons that would normally die rescued,[6]; 2.3 and 7 µg/day onto the chorioallantoic membrane,Forty
same,IC50,"[7]; Homo sapiens, THP-1, THP-1 cells, medium containing 10% fetal bovine serum, read-out: IC50 inhibition of the induction of IL-1",267 nM
same,IC50,"[7]; Homo sapiens, THP-1, THP-1 cells, serum-free medium (500 µg/ml BSA), cytokine not named, read-out: IC50 in serum-free medium",23 nM
same,IC50,"[7]; THP-1 cells, medium containing 10% fetal bovine serum, read-out: IC50 inhibition of the induction of IL-1",269 nM
